Source: US20250109127A1, “METHODS OF USE OF PHENOXYPROPYLAMINE COMPOUNDS TO TREAT DEPRESSION” (Minerva Neurosciences, Inc., priority 2013, published 2025)
“And” between values parts separate entries of the source, which are not always exact repeats. Identical values can stand only once. Counter-ions that a name gives are not always drawn.

Test system: HVA release in the rat prefrontal cortex
Assay: Microdialysis: HVA release in prefrontal cortex after I.P. administration
Format: in vivo
Settings: for HVA (% of respective basal), individual animal: 0.1 mg/kg I.P., c2-c9 = R#13,14,20,19,25,26,31,32; for HVA (% of respective basal), individual animal / HVA release, individual animals: hydrochloride; for HVA release, MEAN / HVA release, individual animals: 0.3 mg/kg I.P.; for HVA release, MEAN / HVA release (% of basal levels) measured in dialysates, MEAN: n = 8; for HVA release, individual animals: one column per animal R#11,12,18,23,29,30,17,24; for HVA release (% of basal levels) measured in dialysates, MEAN: SON-117 3 mg/kg IP
Experimental: The aim of the study was to evaluate, using microdialysis, the effects of an intraperitoneal (I.P.) administration in rats of three different doses of SON-117 on dopamine and its metabolites, serotonin and its metabolite (5-HIAA), and norepinephrine levels in prefrontal cortex.
Thirty-two adult male Wistar rats were used for the whole study (4 groups of eight animals planned for the study, Table 1).
Surgery was performed on rats weighing about 300 g at the beginning of the experiments. Rats were anaesthetized with Ketamine (50 mg/kg) & Xylazine (15 mg/kg) by intramuscular administration. The animals were placed in a stereotaxic apparatus in the flat-skull position at a constant setting of −3.3 mm between ear bars and the incisor bar. The animals were treated with a local anesthesic (xylocaine 1%, Astra Zeneca) and an analgesic (Temgesic, from Schering Plough, 0.05 mg/kg, s.c.). A rostrocaudal midline incision was made with a lancet to expose the dorsal skull surface. The “stereotaxic zero” was defined by the Bregma in accordance with Paxinos and Watson's atlas (1986). A hole was drilled in the skull with a drill and the meninges were pierced with a sterile needle to implant a CMA12 guide cannula which later received the dialysis probe.
Coordinates used for implanting guide cannula in prefrontal cortex from Bregma were anteroposterior 3.7 mm, mediolateral 0.8 mm, and dorsoventral −2 mm (top of the probe was at −5 mm). The guide cannula was fixed to the skull with two stainless steel screws (1.88 mm outside diameter) anchored. An application of dental cement was added. A plastic collar allowed each animal to be tethered to a Swivel assembly of the CMA 120 awake animal system. Following surgery, rats were kept in individual cages and allowed to recover for a minimum of 3-5 days before the experimentation. The rats were handled and put in plastic bowl for 10 min at least every day to habituate the animals to their new environment for the dialysis. An I.P. administration with saline was also performed every day.
Dialysis probes (CMA12/3 mm, membrane, 20 kD cut-off, Carnegie Medicine, Stockholm, Sweden), were carefully washed before inserting into the guide cannula. The wash was performed with the artificial cerebrospinal fluid (aCSF) medium (NaCl 147 mM, KCl 2.7 mM, CaCl2 1.2 mM, MgCl2 0.85 mM) at room temperature. The dialysis system was then equilibrated at 20° C. at a perfusion rate of 1 μl/min with a Carnegie pump (CMA100). All catheters (FEP tubing, internal volume of 1.2 μl/10 cm, and tubing adaptors) used for microdialysis were treated in the same conditions.
The probes duly prepared were inserted into the guide cannula and the CMA120 Swivel assembly secured to the animal using a plastic collar. Flow through the dialysis probe with aCSF was maintained at a rate of 1 μl/min during the whole experimentation. The first four fractions (corresponding to 2 hours) were discarded to avoid the effects of parenchymal disturbance and to ensure that an approximate steady-state level was reached. Fractions were then collected over a period of 8.5 h during which time the animals remained quiet. The dialysates were automatically collected with an autosampler (microfraction collector CMA 140, Carnegie Medicin) and stored at −80° C. until analysis. […] Perfusion was then maintained for 7 hours with aCSF. The dialysates (30 μl) were collected into 300 μl vials, transferred into dry ice and then kept frozen (−80° C.) until analysis. Frozen samples were shipped to a partner for analysis. At the end of the microdialysis study, a PBS with colored ink was perfused through the probe in order to visualize the dialyzed area.
Catecholamine assay: Concentrations of dopamine, DOPAC, HVA, 5-HIAA, 5-HT, and norepinephrin were determined for each sample by HPLC coupled with electrochemical detection.

## Cc1nnc(-c2cc3c(OC[C@@H](O)CN4CCC(c5ccc(Cl)c(Cl)c5)CC4)cccc3o2)o1 [SON-117, (S)-1-(4-(3,4-dichlorophenyl)piperidino)-3-(2-(5-methyl-1,3,4-oxadiazol-2-yl)benzo(b)furan-4-yloxy)-2-propanol hydrochloride]
T30-T1 h
  HVA (% of respective basal), individual animal: 116.26 % of respective basal and 107.34 % of respective basal and 108.66 % of respective basal and 130.85 % of respective basal and 120.36 % of respective basal and 141.88 % of respective basal and 123.41 % of respective basal and 95.76 % of respective basal
  HVA release, MEAN: 94.37 % of respective basal
  HVA release, individual animals: 76.21 % of respective basal and 55.15 % of respective basal and 89.64 % of respective basal and 100.95 % of respective basal and 83.39 % of respective basal and 95.38 % of respective basal and 149.36 % of respective basal and 104.86 % of respective basal
  HVA release (% of basal levels) measured in dialysates, MEAN: 98.30 % of basal levels
T1 h 30-T2 h
  HVA (% of respective basal), individual animal: 97.75 % of respective basal and 109.52 % of respective basal and 89.93 % of respective basal and 170.371 % of respective basal and 123.81 % of respective basal and 97.71 % of respective basal and 126.7 % of respective basal and 80.99 % of respective basal
  HVA release, MEAN: 85.59 % of respective basal
  HVA release, individual animals: 89.77 % of respective basal and 59.14 % of respective basal and 96.89 % of respective basal and 103.49 % of respective basal and 82.49 % of respective basal and 54.42 % of respective basal and 95.23 % of respective basal and 103.32 % of respective basal
T1 h-T1 h 30
  HVA (% of respective basal), individual animal: 124.25 % of respective basal and 162.58 % of respective basal and 98.567 % of respective basal and 241.96 % of respective basal and 130.93 % of respective basal and 153.68 % of respective basal and 123.58 % of respective basal and 80.09 % of respective basal
  HVA release, MEAN: 120.85 % of respective basal
  HVA release, individual animals: 90.43 % of respective basal and 68.90 % of respective basal and 103.82 % of respective basal and 116.53 % of respective basal and 80.54 % of respective basal and 85.72 % of respective basal and 305.74 % of respective basal and 115.15 % of respective basal
T2 h 30-T3 h
  HVA (% of respective basal), individual animal: 88.46 % of respective basal and 123.19 % of respective basal and 75.76 % of respective basal and 151.82 % of respective basal and 149.48 % of respective basal and 157.13 % of respective basal and 121.53 % of respective basal and 21.68 % of respective basal
  HVA release, MEAN: 107.95 % of respective basal
  HVA release, individual animals: 72.76 % of respective basal and 59.51 % of respective basal and 90.20 % of respective basal and 316.58 % of respective basal and 70.98 % of respective basal and 94.71 % of respective basal and 54.48 % of respective basal and 104.42 % of respective basal
T2 h-T2 h 30
  HVA (% of respective basal), individual animal: 83.46 % of respective basal and 121.21 % of respective basal and 80.97 % of respective basal and 145.084 % of respective basal and 132.39 % of respective basal and 106.30 % of respective basal and 139.18 % of respective basal and 53.45 % of respective basal
  HVA release, MEAN: 85.33 % of respective basal
  HVA release, individual animals: 68.39 % of respective basal and 70.39 % of respective basal and 95.76 % of respective basal and 101.52 % of respective basal and 72.96 % of respective basal and 85.03 % of respective basal and 97.42 % of respective basal and 91.18 % of respective basal
T3 h 30-T4 h
  HVA (% of respective basal), individual animal: 94.31 % of respective basal and 116.57 % of respective basal and 55.89 % of respective basal and 152.08 % of respective basal and 193.52 % of respective basal and 154.95 % of respective basal and 123.32 % of respective basal and 16.37 % of respective basal
  HVA release, MEAN: 90.45 % of respective basal
  HVA release, individual animals: 64.18 % of respective basal and 83.25 % of respective basal and 133.74 % of respective basal and 64.93 % of respective basal and 107.52 % of respective basal and 70.49 % of respective basal and 109.07 % of respective basal
T3 h-T3 h 30
  HVA (% of respective basal), individual animal: 135.42 % of respective basal and 99.88 % of respective basal and 73.47 % of respective basal and 137.35 % of respective basal and 137.07 % of respective basal and 115.93 % of respective basal and 133.06 % of respective basal and 20.75 % of respective basal
  HVA release, MEAN: 85.22 % of respective basal
  HVA release, individual animals: 63.81 % of respective basal and 90.24 % of respective basal and 111.62 % of respective basal and 62.71 % of respective basal and 98.55 % of respective basal and 74.57 % of respective basal and 95.05 % of respective basal
T4 h 30-T5 h
  HVA (% of respective basal), individual animal: 128.74 % of respective basal and 102.18 % of respective basal and 100.29 % of respective basal and 40.6 % of respective basal and 130.76 % of respective basal and 136.09 % of respective basal and 114.46 % of respective basal and 68.31 % of respective basal
  HVA release, MEAN: 85.23 % of respective basal
  HVA release, individual animals: 91.96 % of respective basal and 80.15 % of respective basal and 68.04 % of respective basal and 115.19 % of respective basal and 50.60 % of respective basal and 77.44 % of respective basal and 98.06 % of respective basal and 100.39 % of respective basal
T4 h-T4 h 30
  HVA (% of respective basal), individual animal: 149.58 % of respective basal and 107.72 % of respective basal and 55.17 % of respective basal and 173.59 % of respective basal and 155.95 % of respective basal and 149.97 % of respective basal and 148.42 % of respective basal and 76.98 % of respective basal
  HVA release, MEAN: 85.20 % of respective basal
  HVA release, individual animals: 92.27 % of respective basal and 67.44 % of respective basal and 79.90 % of respective basal and 118.84 % of respective basal and 74.80 % of respective basal and 79.15 % of respective basal and 73.39 % of respective basal and 95.82 % of respective basal
T5 h 30-T6 h
  HVA (% of respective basal), individual animal: 146.23 % of respective basal and 127.63 % of respective basal and 35.72 % of respective basal and 136.22 % of respective basal and 116.99 % of respective basal and 123.45 % of respective basal and 128.36 % of respective basal and 65.12 % of respective basal
  HVA release, MEAN: 83.81 % of respective basal
  HVA release, individual animals: 88.34 % of respective basal and 70.37 % of respective basal and 54.74 % of respective basal and 111.90 % of respective basal and 57.33 % of respective basal and 69.05 % of respective basal and 120.47 % of respective basal and 98.25 % of respective basal
T5 h-T5 h 30
  HVA (% of respective basal), individual animal: 143.02 % of respective basal and 149.35 % of respective basal and 36.52 % of respective basal and 131.08 % of respective basal and 120.77 % of respective basal and 117.84 % of respective basal and 126.17 % of respective basal and 77.12 % of respective basal
  HVA release, MEAN: 72.11 % of respective basal
  HVA release, individual animals: 33.79 % of respective basal and 37.83 % of respective basal and 125.18 % of respective basal and 104.80 % of respective basal and 54.92 % of respective basal and 81.46 % of respective basal and 45.38 % of respective basal and 93.54 % of respective basal
T6 h 30-T7 h
  HVA (% of respective basal), individual animal: 155.64 % of respective basal and 142.57 % of respective basal and 54.30 % of respective basal and 131.80 % of respective basal
  HVA release, MEAN: 82.40 % of respective basal
  HVA release, individual animals: 80.98 % of respective basal and 79.92 % of respective basal and 57.44 % of respective basal and 123.91 % of respective basal and 59.14 % of respective basal and 77.28 % of respective basal
T6 h-T6 h 30
  HVA (% of respective basal), individual animal: 149.66 % of respective basal and 147.03 % of respective basal and 11.88 % of respective basal and 133.32 % of respective basal and 118.76 % of respective basal and 122.29 % of respective basal and 121.40 % of respective basal and 66.42 % of respective basal
  HVA release, MEAN: 78.87 % of respective basal
  HVA release, individual animals: 80.55 % of respective basal and 69.54 % of respective basal and 51.01 % of respective basal and 121.49 % of respective basal and 63.35 % of respective basal and 86.74 % of respective basal and 63.13 % of respective basal and 95.14 % of respective basal
T0-T30 min
  HVA release, MEAN: 107.04 % of respective basal
  HVA release (% of basal levels) measured in dialysates, MEAN: 94.34 % of basal levels
T-30 min-T0 (before administration)
  HVA release, MEAN: 101.32 % of respective basal
T-1 h 30-T-1 h (before administration)
  HVA release, MEAN: 95.27 % of respective basal
T-1 h-T-30 min (before administration)
  HVA release, MEAN: 103.42 % of respective basal
SON-117 0.1 mg/kg I.P.
  HVA dialysate levels vs mean pre-administration value: no statistically significant differences
SON-117 0.3 mg/kg IP
  HVA dialysate levels vs mean pre-administration value: no statistically significant differences
